Assay results taken from patent US11229205B2, “Herbicidally active pyridyl-/pyrimidyl-pyrazine derivatives” (Syngenta Participations AG, priority 2017, dated 2022).

Legend:
Format in all cases: in vivo
Setaria faberi (SETFA) [1] = experiment: Post-emergence herbicidal activity (B2); conditions: Test B2b; post-emergence application; rate 1000 g/ha; evaluated after 13 days; score 0-5
Description: (§1) Seeds of a variety of test species were sown in standard soil in pots: Triticum aestivium (TRZAW), Avena fatua (AVEFA), Alopecurus myosuroides (ALOMY), Echinochloa crus-galli (ECHCG), Lolium perenne (LOLPE), Zea Mays (ZEAMX), Abutilon theophrasti (ABUTH), Amaranthus retroflexus (AMARE) and Setaria faberi (SETFA). […] The test plants were then grown in a glasshouse under controlled conditions (at 24/16° C., day/night; 14 hours light; 65% humidity) and watered twice daily. After 13 days, the test was evaluated (5=total damage to plant; 0=no damage to plant).

[2] = system: Alopecurus myosuroides (ALOMY); experiment: Post-emergence herbicidal activity (B2); conditions: Test B2b; post-emergence application; rate 1000 g/ha; evaluated after 13 days; score 0-5
Description: as §1

[3] = system: Echinochloa crus-galli (ECHCG); experiment: Post-emergence herbicidal activity (B2); conditions: Test B2b; post-emergence application; rate 1000 g/ha; evaluated after 13 days; score 0-5
Description: as §1

Avena fatua (AVEFA) [4] = experiment: Post-emergence herbicidal activity (B2); conditions: Test B2b; post-emergence application; rate 1000 g/ha; evaluated after 13 days; score 0-5
Description: as §1

Lolium perenne (LOLPE) [5] = experiment: Post-emergence herbicidal activity (B2); conditions: Test B2b; post-emergence application; rate 1000 g/ha; evaluated after 13 days; score 0-5
Description: as §1

[6] = system: Triticum aestivium (TRZAW); experiment: Post-emergence herbicidal activity (B2); conditions: Test B2b; post-emergence application; rate 1000 g/ha; evaluated after 13 days; score 0-5
Description: as §1

Setaria faberi (SETFA) [7] = experiment: Pre-emergence herbicidal activity (B1); conditions: Test 1b; pre-emergence application; rate 1000 g/ha; evaluated after 13 days; score 0-5
Description: as §1

[8] = system: Alopecurus myosuroides (ALOMY); experiment: Pre-emergence herbicidal activity (B1); conditions: Test 1b; pre-emergence application; rate 1000 g/ha; evaluated after 13 days; score 0-5
Description: as §1

[9] = system: Echinochloa crus-galli (ECHCG); experiment: Pre-emergence herbicidal activity (B1); conditions: Test 1b; pre-emergence application; rate 1000 g/ha; evaluated after 13 days; score 0-5
Description: as §1

Avena fatua (AVEFA) [10] = experiment: Pre-emergence herbicidal activity (B1); conditions: Test 1b; pre-emergence application; rate 1000 g/ha; evaluated after 13 days; score 0-5
Description: as §1

Lolium perenne (LOLPE) [11] = experiment: Pre-emergence herbicidal activity (B1); conditions: Test 1b; pre-emergence application; rate 1000 g/ha; evaluated after 13 days; score 0-5
Description: as §1

[12] = system: Triticum aestivium (TRZAW); experiment: Pre-emergence herbicidal activity (B1); conditions: Test 1b; pre-emergence application; rate 1000 g/ha; evaluated after 13 days; score 0-5
Description: as §1

Compound | damage to plant, SETFA (Setaria faberi (SETFA) [1]) | damage to plant, ALOMY [2] | damage to plant, ECHCG [3] | damage to plant, AVEFA (Avena fatua (AVEFA) [4]) | damage to plant, LOLPE (Lolium perenne (LOLPE) [5]) | damage to plant, TRAZW [6] | damage to plant, SETFA (Setaria faberi (SETFA) [7]) | damage to plant, ALOMY [8] | damage to plant, ECHCG [9] | damage to plant, AVEFA (Avena fatua (AVEFA) [10]) | damage to plant, LOLPE (Lolium perenne (LOLPE) [11]) | damage to plant, TRAZW [12]
CCOC(=O)c1nc(-c2cncnc2)cnc1N [Compound G2] | 3 | 1 | 1 | 1 | 1 | 0 | 2 | 0 | 0 | 0 | 0 | 0
Nc1ncc(-c2cncc(F)c2)nc1C(F)(F)F [Compound G3, 2-amino-3-trifluoromethyl-5-(5-fluoropyrid-3-yl) pyrazine] | 3 | 0 | 4 | 3 | 2 | 0 | 4 | 1 | 3 | 1 | 0 | 1
Cc1nc(-c2cncc(F)c2)cnc1N [Compound G4] | 3 | 0 | 2 | 1 | 0 | 0 | 1 | 0 | 1 | 1 | 0 | 0
COc1nc(-c2cncc(F)c2)cnc1N [Compound G5] | 3 | 1 | 2 | 1 | 0 | 0 | 1 | 0 | 1 | 0 | 0 | 0
Nc1ncc(-c2cncnc2)nc1C(F)(F)F [Compound G6] | 3 | 0 | 3 | 1 | 1 | 0 | 2 | 0 | 1 | 1 | 0 | 0
N#Cc1nc(-c2cncc(F)c2)cnc1N [Compound G7] | 2 | 0 | 3 | 1 | 0 | 0 | 1 | 0 | 1 | 0 | 0 | 0
Nc1ncc(-c2cncc(F)c2)nc1Br [Compound G8, 2-amino-3-bromo-5-(5-fluoropyrid-3-yl)pyrazine] | 1 | 0 | 2 | 0 | 0 | 0 | 0 | 0 | 0 | 0 | 0 | 0
Nc1ncc(-c2cncnc2)nc1OCc1ccccc1 [Compound G10] | 1 | 0 | 1 | 0 | 0 | 0 | 0 | 0 | 0 | 0 | 0 | 0
Nc1ncc(-c2cncc(F)c2)nc1OCc1ccccc1 [Compound G11] | 1 | 0 | 1 | 1 | 0 | 0 | 0 | 0 | 0 | 0 | 0 | 0
OCNc1ncc(-c2cncc(F)c2)nc1C(F)(F)F [Compound G12, 2-hydroxymethylamino-3-trifluoromethyl-5-(5-fluoropyrid-3-yl)pyrazine] | 3 | 0 | 2 | 5 | 0 | 0 | 5 | 0 | 3 | 1 | 0 | 0
Cc1nc(-c2cncc(F)c2)cnc1N(C)C [Compound G13, 2-dimethylamino-3-methyl-5-(5-fluoropyrid-3-yl)pyrazine] | 3 | 0 | 1 | 1 | 0 | 0 | 1 | 0 | 0 | 0 | 0 | 0
C=C(C)c1nc(-c2cncc(F)c2)cnc1N [Compound G14, 5-(5-fluoro-3-pyridyl)-3-isopropenyl-pyrazin-2-amine] | 4 | 0 | 1 | 1 | 1 | 0 | 2 | 0 | 1 | 0 | 0 | 0
CC(C)c1nc(-c2cncc(F)c2)cnc1N [Compound G15, 2-amino-3-(prop-2-yl)-5-(5-fluoropyrid-3-yl)pyrazine] | 4 | 0 | 1 | 0 | 0 | 0 | 0 | 0 | 0 | 0 | 2 | 0
CNc1ncc(-c2cncc(F)c2)nc1C [Compound G17, 2-methylamino-3-methyl-5-(5-fluoropyrid-3-yl)pyrazine] | 1 | 0 | 1 | 0 | 0 | 0 | 0 | 0 | 0 | 0 | 0 | 0
C=Cc1nc(-c2cncc(F)c2)cnc1N [Compound G18] | 1 | 0 | 1 | 1 | 0 | 0 | 0 | 0 | 0 | 0 | 0 | 0
CCc1nc(-c2cncc(F)c2)cnc1N [Compound G19] | 3 | 0 | 2 | 1 | 0 | 0 | 4 | 0 | 1 | 0 | 1 | 0
C[Si](C)(C)C#Cc1nc(-c2cncc(F)c2)cnc1N [Compound G20] | 0 | 0 | 0 | 1 | 0 | 1 | 0 | 0 | 0 | 0 | 0 | 0
CCCNc1ncc(-c2cncc(F)c2)nc1C(F)(F)F [Compound G23] | 4 | 0 | 4 | 1 | 1 | 0 | 3 | 1 | 2 | 0 | 1 | 0
